Results as given in patent US20220389061A1, “IMMUNOMODULATORS” (priority 2019, published 2022).
Where two headings read alike, the source gives them in different places. Starred links: 1 amine or outer side, 2 acyl side, 3 side chain; linkers in the order of their positions; H or OH if unused. Positions of bridges follow the written chain, without caps; N, C: chain ends. Non-standard residues stand in square brackets, D forms with d. Residues, ends and D or L forms follow the SMILES beside them. Groups on a side chain read outwards from the residue. *: point of attachment. Trp(1-CH2COOH) = N[C@@H](Cc1cn(CC(=O)O)c2ccccc12)C(=O)O; X73 = FC(F)(F)c1cc(NC(=S)*)cc(C(F)(F)F)c1; Benzofuran(2-CO) = O=C(c1cc2ccccc2o1)*; X95 = O=[N+]([O-])c1cccc(NC(=S)*)c1; X50 = COc1cc(NC(=S)*)ccc1-c1cnco1; Hyp = O=C(O)[C@@H]1C[C@@H](O)CN1; X33 = Cc1cc2ccc(NC(=S)*)cc2[nH]1; X56 = COc1cc([N+](=O)[O-])ccc1N*; X43 = S=C(Nc1ccccc1Oc1ccccc1)*; X96 = Fc1cc(F)c(NC(=S)*)c(F)c1; pNA = O=[N+]([O-])c1ccc(N*)cc1; X60 = Cc1cc2cc(NC(=S)*)ccc2o1; NMeNle = CCCC[C@H](NC)C(=O)O; X4 = S=C(Nc1ccc2c(c1)OCCO2)*; X20 = O=C(Oc1ccc2ccccc2c1)*; NMeA = CN[C@@H](C)C(=O)O; Dab = NCC[C@H](N)C(=O)O; Dap = NC[C@H](N)C(=O)O; X37 = Fc1cc(F)cc(N*)c1; CO = O=C([*:1])[*:2]

Target: T1, PD-1/PD-L1 (Homo sapiens, UniProt Q9NZQ7)
T1 construct: TVMV protease site linker (C); made in house; host or cells: HEK293T cells
Test: PD-1/PD-L1 Homogenous Time-Resolved Fluorescence (HTRF) binding assay
Method in brief: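 HTRF read-out using europium cryptate anti-Ig (1 nM) and APC anti-His (20 nM) on extracellular-domain fusion proteins in dPBS/0.1% BSA/0.05% Tween-20. Inhibitor first incubated 15 min with 10 nM PD-L1-His, followed by 20 nM PD-1-Ig for another 15 min.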

[1] = PD-L1-His 10 nM pre-incubated with inhibitor, PD-1-Ig 20 nM, read-out: HTRF IC50

T1 sequence (Q9NZQ7 18-239): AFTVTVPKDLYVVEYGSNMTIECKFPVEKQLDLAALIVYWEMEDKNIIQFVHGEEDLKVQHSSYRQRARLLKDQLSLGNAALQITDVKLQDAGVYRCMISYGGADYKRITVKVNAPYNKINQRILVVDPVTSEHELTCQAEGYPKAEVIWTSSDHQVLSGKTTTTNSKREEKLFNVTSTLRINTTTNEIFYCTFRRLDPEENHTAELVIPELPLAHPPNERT

| SMILES | IC50 [1] [nM] | IC50 [nM] |
| --- | --- | --- |
| CCCC[C@H]1C(=O)N(C)[C@@H](CCCC)C(=O)N[C@@H](CC(C)C)C(=O)N[C@H](C(=O)NCC(N)=O)CSCC(=O)N[C@@H](Cc2ccc(O)cc2)C(=O)N(C)[C@@H](C)C(=O)N[C@@H](CC(N)=O)C(=O)N2CCC[C@H]2C(=O)N[C@@H](CNC(=S)Nc2cccc([N+](=O)[O-])c2)C(=O)N[C@@H](CC(C)C)C(=O)N2C[C@H](O)C[C@H]2C(=O)N[C@@H](Cc2c[nH]c3ccccc23)C(=O)N[C@@H](CCNC(=S)Nc2cccc([N+](=O)[O-])c2)C(=O)N[C@@H](Cc2cn(CC(=O)O)c3ccccc23)C(=O)N1C [Example 1036] ({CH2CO}-Y[NMeA]NP[Dap](X95)L[Hyp]W[Dab](X95)[Trp(1-CH2COOH)][NMeNle][NMeNle]LCG-NH2; thioether N-14) |  | 2.6 |
| CCCC[C@H]1C(=O)N(C)[C@@H](CCCC)C(=O)N[C@@H](CC(C)C)C(=O)N[C@H](C(=O)NCC(N)=O)CSCC(=O)N[C@@H](Cc2ccc(O)cc2)C(=O)N(C)[C@@H](C)C(=O)N[C@@H](CC(N)=O)C(=O)N2CCC[C@H]2C(=O)N[C@@H](CNC(=S)Nc2ccc3c(c2)OCCO3)C(=O)N[C@@H](CC(C)C)C(=O)N2C[C@H](O)C[C@H]2C(=O)N[C@@H](Cc2c[nH]c3ccccc23)C(=O)N[C@@H](CCNC(=S)Nc2ccc3c(c2)OCCO3)C(=O)N[C@@H](Cc2cn(CC(=O)O)c3ccccc23)C(=O)N1C [Example 3007] ({CH2CO}-Y[NMeA]NP[Dap](X4)L[Hyp]W[Dab](X4)[Trp(1-CH2COOH)][NMeNle][NMeNle]LCG-NH2; thioether N-14) | 2.6 |  |
| CCCC[C@H]1C(=O)N(C)[C@@H](CCCC)C(=O)N[C@@H](CC(C)C)C(=O)N[C@H](C(=O)NCC(N)=O)CSCC(=O)N[C@@H](Cc2ccc(O)cc2)C(=O)N(C)[C@@H](C)C(=O)N[C@@H](CC(N)=O)C(=O)N2CCC[C@H]2C(=O)N[C@@H](CNC(=S)Nc2ccc(-c3cnco3)c(OC)c2)C(=O)N[C@@H](CC(C)C)C(=O)N2C[C@H](O)C[C@H]2C(=O)N[C@@H](Cc2c[nH]c3ccccc23)C(=O)N[C@@H](CCNC(=S)Nc2ccc(-c3cnco3)c(OC)c2)C(=O)N[C@@H](Cc2cn(CC(=O)O)c3ccccc23)C(=O)N1C [Example 1029] ({CH2CO}-Y[NMeA]NP[Dap](X50)L[Hyp]W[Dab](X50)[Trp(1-CH2COOH)][NMeNle][NMeNle]LCG-NH2; thioether N-14) | 3.1 |  |
| CCCC[C@H]1C(=O)N(C)[C@@H](CCCC)C(=O)N[C@@H](CC(C)C)C(=O)N[C@H](C(=O)NCC(N)=O)CSCC(=O)N[C@@H](Cc2ccc(O)cc2)C(=O)N(C)[C@@H](C)C(=O)N[C@@H](CC(N)=O)C(=O)N2CCC[C@H]2C(=O)N[C@@H](CNC(=O)Oc2ccc3ccccc3c2)C(=O)N[C@@H](CC(C)C)C(=O)N2C[C@H](O)C[C@H]2C(=O)N[C@@H](Cc2c[nH]c3ccccc23)C(=O)N[C@@H](CCNC(=O)Oc2ccc3ccccc3c2)C(=O)N[C@@H](Cc2cn(CC(=O)O)c3ccccc23)C(=O)N1C [Example 3037] ({CH2CO}-Y[NMeA]NP[Dap](X20)L[Hyp]W[Dab](X20)[Trp(1-CH2COOH)][NMeNle][NMeNle]LCG-NH2; thioether N-14) |  | 5 |
| CCCC[C@H]1C(=O)N(C)[C@@H](CCCC)C(=O)N[C@@H](CC(C)C)C(=O)N[C@H](C(=O)NCC(N)=O)CSCC(=O)N[C@@H](Cc2ccc(O)cc2)C(=O)N(C)[C@@H](C)C(=O)N[C@@H](CC(N)=O)C(=O)N2CCC[C@H]2C(=O)N[C@@H](CN)C(=O)N[C@@H](CC(C)C)C(=O)N2C[C@H](O)C[C@H]2C(=O)N[C@@H](Cc2c[nH]c3ccccc23)C(=O)N[C@@H](CCNC(=O)Nc2ccc([N+](=O)[O-])cc2)C(=O)N[C@@H](Cc2cn(CC(=O)O)c3ccccc23)C(=O)N1C [Example 1131] ({CH2CO}-Y[NMeA]NP[Dap]L[Hyp]W[Dab]([CO-pNA])[Trp(1-CH2COOH)][NMeNle][NMeNle]LCG-NH2; thioether N-14) |  | 7.3 |
| CCCC[C@H]1C(=O)N(C)[C@@H](CCCC)C(=O)N[C@@H](CC(C)C)C(=O)N[C@H](C(=O)NCC(N)=O)CSCC(=O)N[C@@H](Cc2ccc(O)cc2)C(=O)N(C)[C@@H](C)C(=O)N[C@@H](CC(N)=O)C(=O)N2CCC[C@H]2C(=O)N[C@@H](CNC(=S)Nc2ccccc2Oc2ccccc2)C(=O)N[C@@H](CC(C)C)C(=O)N2C[C@H](O)C[C@H]2C(=O)N[C@@H](Cc2c[nH]c3ccccc23)C(=O)N[C@@H](CCNC(=S)Nc2ccccc2Oc2ccccc2)C(=O)N[C@@H](Cc2cn(CC(=O)O)c3ccccc23)C(=O)N1C [Example 1129] ({CH2CO}-Y[NMeA]NP[Dap](X43)L[Hyp]W[Dab](X43)[Trp(1-CH2COOH)][NMeNle][NMeNle]LCG-NH2; thioether N-14) | 9.4 |  |

Second part, led by results:

| IC50 [1] [nM] | SMILES | IC50 [nM] |
| --- | --- | --- |
| 14 | CCCC[C@H]1C(=O)N(C)[C@@H](CCCC)C(=O)N[C@@H](CC(C)C)C(=O)N[C@H](C(=O)NCC(N)=O)CSCC(=O)N[C@@H](Cc2ccc(O)cc2)C(=O)N(C)[C@@H](C)C(=O)N[C@@H](CC(N)=O)C(=O)N2CCC[C@H]2C(=O)N[C@@H](CNC(=S)Nc2cc(C(F)(F)F)cc(C(F)(F)F)c2)C(=O)N[C@@H](CC(C)C)C(=O)N2C[C@H](O)C[C@H]2C(=O)N[C@@H](Cc2c[nH]c3ccccc23)C(=O)N[C@@H](CCN)C(=O)N[C@@H](Cc2cn(CC(=O)O)c3ccccc23)C(=O)N1C [Example 1136] ({CH2CO}-Y[NMeA]NP[Dap](X73)L[Hyp]W[Dab][Trp(1-CH2COOH)][NMeNle][NMeNle]LCG-NH2; thioether N-14) |  |
| 2.7 | CCCC[C@H]1C(=O)N(C)[C@@H](CCCC)C(=O)N[C@@H](CC(C)C)C(=O)N[C@H](C(=O)NCC(N)=O)CSCC(=O)N[C@@H](Cc2ccc(O)cc2)C(=O)N(C)[C@@H](C)C(=O)N[C@@H](CC(N)=O)C(=O)N2CCC[C@H]2C(=O)N[C@@H](CNC(=O)c2cc3ccccc3o2)C(=O)N[C@@H](CC(C)C)C(=O)N2C[C@H](O)C[C@H]2C(=O)N[C@@H](Cc2c[nH]c3ccccc23)C(=O)N[C@@H](CCNC(=O)c2cc3ccccc3o2)C(=O)N[C@@H](Cc2cn(CC(=O)O)c3ccccc23)C(=O)N1C [Example 3036] ({CH2CO}-Y[NMeA]NP[Dap](Benzofuran(2-CO))L[Hyp]W[Dab](Benzofuran(2-CO))[Trp(1-CH2COOH)][NMeNle][NMeNle]LCG-NH2; thioether N-14) |  |
| 1.5 | CCCC[C@H]1C(=O)N(C)[C@@H](CCCC)C(=O)N[C@@H](CC(C)C)C(=O)N[C@H](C(=O)NCC(N)=O)CSCC(=O)N[C@@H](Cc2ccc(O)cc2)C(=O)N(C)[C@@H](C)C(=O)N[C@@H](CC(N)=O)C(=O)N2CCC[C@H]2C(=O)N[C@@H](CNC(=S)Nc2ccc3oc(C)cc3c2)C(=O)N[C@@H](CC(C)C)C(=O)N2C[C@H](O)C[C@H]2C(=O)N[C@@H](Cc2c[nH]c3ccccc23)C(=O)N[C@@H](CCNC(=S)Nc2ccc3oc(C)cc3c2)C(=O)N[C@@H](Cc2cn(CC(=O)O)c3ccccc23)C(=O)N1C [Example 3072] ({CH2CO}-Y[NMeA]NP[Dap](X60)L[Hyp]W[Dab](X60)[Trp(1-CH2COOH)][NMeNle][NMeNle]LCG-NH2; thioether N-14) |  |
| 2.5 | CCCC[C@H]1C(=O)N(C)[C@@H](CCCC)C(=O)N[C@@H](CC(C)C)C(=O)N[C@H](C(=O)NCC(N)=O)CSCC(=O)N[C@@H](Cc2ccc(O)cc2)C(=O)N(C)[C@@H](C)C(=O)N[C@@H](CC(N)=O)C(=O)N2CCC[C@H]2C(=O)N[C@@H](CNC(=O)Nc2cc(F)cc(F)c2)C(=O)N[C@@H](CC(C)C)C(=O)N2C[C@H](O)C[C@H]2C(=O)N[C@@H](Cc2c[nH]c3ccccc23)C(=O)N[C@@H](CCN)C(=O)N[C@@H](Cc2cn(CC(=O)O)c3ccccc23)C(=O)N1C [Example 1079] ({CH2CO}-Y[NMeA]NP[Dap]([CO-X37])L[Hyp]W[Dab][Trp(1-CH2COOH)][NMeNle][NMeNle]LCG-NH2; thioether N-14) |  |
| 3.3 | CCCC[C@H]1C(=O)N(C)[C@@H](CCCC)C(=O)N[C@@H](CC(C)C)C(=O)N[C@H](C(=O)NCC(N)=O)CSCC(=O)N[C@@H](Cc2ccc(O)cc2)C(=O)N(C)[C@@H](C)C(=O)N[C@@H](CC(N)=O)C(=O)N2CCC[C@H]2C(=O)N[C@@H](CNC(=S)Nc2c(F)cc(F)cc2F)C(=O)N[C@@H](CC(C)C)C(=O)N2C[C@H](O)C[C@H]2C(=O)N[C@@H](Cc2c[nH]c3ccccc23)C(=O)N[C@@H](CCNC(=S)Nc2c(F)cc(F)cc2F)C(=O)N[C@@H](Cc2cn(CC(=O)O)c3ccccc23)C(=O)N1C [Example 1044] ({CH2CO}-Y[NMeA]NP[Dap](X96)L[Hyp]W[Dab](X96)[Trp(1-CH2COOH)][NMeNle][NMeNle]LCG-NH2; thioether N-14) |  |
| 2.4 | CCCC[C@H]1C(=O)N(C)[C@@H](CCCC)C(=O)N[C@@H](CC(C)C)C(=O)N[C@H](C(=O)NCC(N)=O)CSCC(=O)N[C@@H](Cc2ccc(O)cc2)C(=O)N(C)[C@@H](C)C(=O)N[C@@H](CC(N)=O)C(=O)N2CCC[C@H]2C(=O)N[C@@H](CNC(=O)Nc2ccc([N+](=O)[O-])cc2OC)C(=O)N[C@@H](CC(C)C)C(=O)N2C[C@H](O)C[C@H]2C(=O)N[C@@H](Cc2c[nH]c3ccccc23)C(=O)N[C@@H](CCN)C(=O)N[C@@H](Cc2cn(CC(=O)O)c3ccccc23)C(=O)N1C [Example 1108] ({CH2CO}-Y[NMeA]NP[Dap]([CO-X56])L[Hyp]W[Dab][Trp(1-CH2COOH)][NMeNle][NMeNle]LCG-NH2; thioether N-14) |  |
| 3 | CCCC[C@H]1C(=O)N(C)[C@@H](CCCC)C(=O)N[C@@H](CC(C)C)C(=O)N[C@H](C(=O)NCC(N)=O)CSCC(=O)N[C@@H](Cc2ccc(O)cc2)C(=O)N(C)[C@@H](C)C(=O)N[C@@H](CC(N)=O)C(=O)N2CCC[C@H]2C(=O)N[C@@H](CNC(=S)Nc2ccc3cc(C)[nH]c3c2)C(=O)N[C@@H](CC(C)C)C(=O)N2C[C@H](O)C[C@H]2C(=O)N[C@@H](Cc2c[nH]c3ccccc23)C(=O)N[C@@H](CCN)C(=O)N[C@@H](Cc2cn(CC(=O)O)c3ccccc23)C(=O)N1C [Example 3048] ({CH2CO}-Y[NMeA]NP[Dap](X33)L[Hyp]W[Dab][Trp(1-CH2COOH)][NMeNle][NMeNle]LCG-NH2; thioether N-14) |  |
